Data: patent EP0791603A2, “Pure somatostatin antagonist and methods of use thereof” (American Cyanamid Company, priority 1996, dated 1997)
Positions of bridges follow the written chain, without caps; N, C: chain ends. Non-standard residues stand in square brackets, D forms with d. Residues, ends and D or L forms follow the SMILES beside them. Phe(4-NO2) = N[C@@H](Cc1ccc([N+](=O)[O-])cc1)C(=O)O; dPhe(4-NO2) = N[C@H](Cc1ccc([N+](=O)[O-])cc1)C(=O)O; 2Nal = N[C@@H](Cc1ccc2ccccc2c1)C(=O)O; Orn = NCCC[C@H](N)C(=O)O

Assays:
SSTR2 = SSTR2 (Rattus norvegicus, UniProt P30680); test: Competitive binding, displacement of [125I]Tyr11 S-14; design: expressed in transfected cells; conditions: [125I]Tyr11 S-14 250 pM, room temperature 2 hours; for IC50: membrane protein, read-out: SSTR2 Binding Affinity IC50; for Ki: calculated by Cheng and Prusoff, read-out: SSTR2 Binding Affinity Ki
Chain of SSTR2 (P30680 whole entry): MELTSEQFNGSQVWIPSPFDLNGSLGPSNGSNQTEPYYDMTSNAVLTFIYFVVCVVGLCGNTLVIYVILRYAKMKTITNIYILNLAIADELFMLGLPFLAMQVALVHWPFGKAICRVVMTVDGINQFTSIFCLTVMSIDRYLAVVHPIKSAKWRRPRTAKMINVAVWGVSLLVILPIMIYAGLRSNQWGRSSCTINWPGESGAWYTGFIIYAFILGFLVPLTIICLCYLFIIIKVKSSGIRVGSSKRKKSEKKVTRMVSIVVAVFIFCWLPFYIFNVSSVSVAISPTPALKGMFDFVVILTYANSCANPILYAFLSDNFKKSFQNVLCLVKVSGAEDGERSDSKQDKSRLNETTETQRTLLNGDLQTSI
Description: In this evaluation the concentration of test compound required to displace 50% of somatostatin, SRIF, from the SRIF receptor subtypes expressed in mammalian cells is measured, i.e., the concentration required to inhibit 50% of [^125I] Tyr^11 S-14 (Amersham) (IC50) from binding to the SRIF receptor subtypes.
Radiolabeled SRIF is mixed with pituitary cells, the test compound is added, the mixture is incubated and the radioactivity is measured as compared to control. Reduced radioactivity indicates successful competitive binding of the test compound to the pituitary cell receptor. The concentration of the test compound in nanomolar units required to displace 50% of SRIF from the pituitary cell receptor is calculated and reported in Table II as the IC50 value. Also calculated is the inhibitory constant, Ki.
Tyr^11S-14 (150,000 cpm at 2000 Ci/mmole, 250 pM final concentration). The binding reaction is initiated by adding 2-60µg of membrane protein in a 170 µL volume. Final reaction volume is 200 µl/well. All incubations are carried out at room temperature for 2 hours. Free radioligand is separated from bound ligand by rapid filtration through a glass fiber filter (IH-201-HA) using an Inotech cell harvester. The filter is then washed several times with cold (4°C) binding buffer lacking BSA and protease inhibitors prior to counting in an LKB gamma master counter (78% efficiency). Whatman GFC filters presoaked in 0.3% polyethylenimine (to decrease background) are used.
The IC50 values and Ki values are calculated using the well-known methods described by Y. Cheng and W. H. Prusoff, Biochem. Pharmacol. 22, 3099-3108 (1973), incorporated herein by reference thereto.

[1] = molecular target: T1, rat somatostatin receptor subtype 2 (SSTR2) (Rattus norvegicus, UniProt P30680); test: Yeast assay, somatostatin antagonist activity (zone of no growth in presence of S-14); assay type: cell-based; design: key: 1 is minimum antagonist activity; 5 is maximum antagonist activity; -: When no activity is observed, the result is indicated by a dash; conditions: rating on a scale of 1-5 from zone of no growth; 5µL of 1 mg/mL S-14 added to each plate; S. Cerevisiae LY364
T1 construct: expressed in transfected cells; host or cells: Saccharomyces cerevisiae LY364
T1 sequence (P30680 whole entry): as above
Description: To evaluate the somatostatin antagonist activity of a test compound, the above procedure is followed except on day 3, 5µL of 1 mg/mL of somatostatin, S-14, is added to each plate, before applying the test compound. If the test compound is an antagonist of somatostatin, then a zone of no growth will appear within the cell growth zone. This zone of no growth is measured and the test compound is given an antagonist rating on a scale of 1-5 wherein 1 is minimum antagonist activity and 5 is maximum antagonist activity.
The results are shown in Table I. When no activity is observed, the result is indicated by a dash.
(§1) • 1) Inoculate 2 mL SCD-ura-trp liquid medium in Falcon 2051 tube with a single colony taken from a plate containing LY364 (MATa ura3-52 leu2 his3 trp1 lys2 ade2 far1:: LYS2 fus1:: FUS1-HIS3 gpal::hisG sst2::ADE2 bearing the SSTR2 expression plasmid, pJH2, and the G protein expression plasmid, pLP82)cells. • 2) Incubate overnight in a roller drum at 30°C.
(§2) Day 2. • 1) Harvest the cells by centrifugation (3 krpm, 5 min, room temp). • 2) Re-suspend with 5 mL of sterile water. • 3) Harvest again by centrifugation. • 4) Re-suspend in 5 mL SCL-ura-trp liquid medium. • 5) Incubate for 6 hours in a roller drum at 30°C. • 6) Harvest the cells again by centrifugation. • 7) Re-suspend in 5 mL SCG-ura-trp liquid medium. • 8) Incubate overnight in a roller drum at 30°C.
(§3) Day 3. • 1) Autoclave SCG-ura-trp-his pH 6.8 agar medium. • 2) Cool to 55°C in water bath. • 3) Add 1 mL of LY364 culture to 1 liter of agar medium. • 4) Stir vigorously for 1 min. • 5) Pour 150 mL each into five 500 cm^2 plates. • 6) Allow to cool on level surface. • 7) Apply test compound.
(§4) On day 3, add 5µL 1 mg/mL S-14 to each plate. Day 5. Begin checking plates for growth around applied compounds. Day 7. Growth in response to somatostatin should be readily observable. Rate extent of growth or inhibition of growth according to rating scale described hereinabove.

[2] = molecular target: T1, rat somatostatin receptor subtype 2 (SSTR2); test: Yeast assay, somatostatin agonist activity (growth zone of modified yeast cells on histidine-free agar); assay type: cell-based; conditions: rating on a scale of 1-5 from zone of growing cells; S. Cerevisiae LY364
Description: In this evaluation, yeast cells which have been specifically modified to functionally express rat somatostatin receptor subtype 2 (SSTR2) on their cell surfaces are used. S. Cerevisiae LY364 cells are plated in a standard synthetic agar medium which lacks histidine. In the absence of a somatostatin receptor agonist, the auxotrophic (his3) cells are unable to grow. In the presence of somatostatin, or a somatostatin agonist, the expression of an enzyme (His3p: imidazole-glycerol phosphate dehydratase) which is essential for histidine biosynthesis is induced. The cells become competent to produce histidine, resulting in a zone of growing cells around the applied test compound. The zone is measured and the test compound is given an agonist rating on a scale of 1-5 wherein 1 is minimum agonist activity and 5 is maximum agonist activity.
SCD-ura-trp: • 1) To 500 mL water add: • 1.7 g YNB without amino acids and (NH4)2SO4 • 5.0 g (NH4)2SO4 • 0.7 g CSM-ura-trp • 2) To additional 500 mL water add: 20 g Dextrose • 3) Autoclave separately. Mix.
SCL-ura-trp: • 1) To 500 mL water add: • 1.7 g YNB without amino acids and (NH4)2SO4 • 5.0 g (NH4)2SO4 • 0.7 g CSM-ura-trp • 2) To additional 500 mL water add: 30 mL Lactic Acid • 3) Autoclave separately. Mix.
SCG-ura-trp: • 1) To 500 mL water add: • 1.7 g YNB without amino acids and (NH4)2SO4 • 5.0 g (NH4)2SO4 • 0.7 g CSM-ura-trp • 2) To additional 500 mL water add: 30 g D-Galactose • 3) Autoclave separately. Mix.
SCG-ura-trp-his agar medium, pH 6.8: • 1) To 500 mL water add: • 1.7 g YNB without amino acids and (NH4)2SO4 • 5.0 g (NH4)2SO4 • 0.7 g CSM-ura-trp-his • Stirring Bar • 2) Adjust pH to 6.8-6.9 by dropwise addition of conc. NH4OH • 3) To additional 500 mL water add: 30 g D-Galactose, 20 g Agar • 4) Autoclave separately. • 5) Stir to mix thoroughly. • 6) Equilibrate temperature to 55°C. YNB without amino acids and (NH4)2SO4, CSM-ura-trp, and CSM-ura-trp-his are manufactured by Bio101. Ammonium sulfate ((NH4)2SO4), Dextrose (D-glucose), D-Galactose, and Lactic Acid are manufactured by Sigma.
as §1, §2, §3, §4

SMILES | IC50 (SSTR2) [nM] | Ki (SSTR2) [nM] | Yeast Assay Antagonist [1] | Yeast Assay Agonist [2]
CC(C)[C@@H]1NC(=O)[C@H](CCCN)NC(=O)[C@@H](Cc2c[nH]c3ccccc23)NC(=O)[C@H](Cc2ccc(O)cc2)NC(=O)[C@H](NC(=O)[C@@H](N)Cc2ccc([N+](=O)[O-])cc2)CSSC[C@@H](C(=O)N[C@@H](Cc2ccc(O)cc2)C(N)=O)NC1=O (H-[Phe(4-NO2)][dC]Y[dW][Orn]VCY-NH2; disulfide 2-7) | 113 | 50.2 |  | 
NCCCC[C@@H]1NC(=O)[C@@H](Cc2c[nH]c3ccccc23)NC(=O)[C@H](Cc2ccc(O)cc2)NC(=O)[C@H](NC(=O)[C@@H](N)Cc2ccc([N+](=O)[O-])cc2)CSSC[C@@H](C(=O)N[C@@H](Cc2ccc3ccccc3c2)C(N)=O)NC(=O)[C@H](CO)NC1=O (H-[Phe(4-NO2)][dC]Y[dW]KSC[2Nal]-NH2; disulfide 2-7) | 10 | 4.44 |  | 
CC(=O)N[C@@H](Cc1ccc(I)cc1)C(=O)N[C@@H]1CSSC[C@@H](C(=O)N[C@H](Cc2ccc(O)cc2)C(N)=O)NC(=O)[C@H]([C@@H](C)O)NC(=O)[C@H](CCCCN)NC(=O)[C@@H](Cc2c[nH]c3ccccc23)NC(=O)[C@H](Cc2ccc(O)cc2)NC1=O | 6 | 2.8 | 4 | -
C[C@@H](O)[C@@H]1NC(=O)[C@H](CCCNC(=N)N)NC(=O)[C@@H](Cc2c[nH]c3ccccc23)NC(=O)[C@H](Cc2ccc(O)cc2)NC(=O)[C@H](NC(=O)[C@@H](N)Cc2ccc([N+](=O)[O-])cc2)CSSC[C@@H](C(=O)N[C@@H](Cc2ccc(O)cc2)C(N)=O)NC1=O (H-[Phe(4-NO2)][dC]Y[dW]RTCY-NH2; disulfide 2-7 (inferred)) |  |  | 2 | -
CC(=O)N[C@@H](Cc1ccc(I)cc1)C(=O)N[C@@H]1CSSC[C@@H](C(=O)N[C@@H](Cc2ccc(O)cc2)C(N)=O)NC(=O)[C@H]([C@@H](C)O)NC(=O)[C@H](CCCCN)NC(=O)[C@@H](Cc2c[nH]c3ccccc23)NC(=O)[C@H](Cc2ccc(O)cc2)NC1=O |  |  | 1 | -

Next, values leading:

IC50 (SSTR2) [nM] | Ki (SSTR2) [nM] | Yeast Assay Antagonist [1] | Yeast Assay Agonist [2] | SMILES
 |  | 1 | - | C[C@@H](O)[C@@H]1NC(=O)[C@H](CCCCN)NC(=O)[C@@H](Cc2c[nH]c3ccccc23)NC(=O)[C@H](Cc2ccc(O)cc2)NC(=O)[C@H](NC(=O)[C@@H](N)Cc2ccc3ccccc3c2)CSSC[C@@H](C(=O)N[C@@H](Cc2ccc(O)cc2)C(N)=O)NC1=O (H-[2Nal][dC]Y[dW]KTCY-NH2; disulfide 2-7 (inferred); N-terminus assumed)
0.6 | 0.26 |  |  | C[C@@H](O)[C@@H]1NC(=O)[C@H](CCCCN)NC(=O)[C@@H](Cc2c[nH]c3ccccc23)NC(=O)[C@H](Cc2ccc(O)cc2)NC(=O)[C@H](NC(=O)[C@@H](N)Cc2ccc(I)cc2)CSSC[C@@H](C(=O)N[C@@H](Cc2ccc(O)cc2)C(N)=O)NC1=O
39 | 17.3 |  |  | CC(C)[C@@H]1NC(=O)[C@H](CCCCN)NC(=O)[C@@H](Cc2c[nH]c3ccccc23)NC(=O)[C@H](Cc2ccc(O)cc2)NC(=O)[C@H](NC(=O)[C@H](N)Cc2ccc([N+](=O)[O-])cc2)CSSC[C@@H](C(=O)N[C@@H](Cc2ccc(O)cc2)C(N)=O)NC1=O (H-[dPhe(4-NO2)][dC]Y[dW]KVCY-NH2; disulfide 2-7)
